Reference: patent publication US20090048112A1, “Novel Herbicides” (SYNGENTA LIMITED, priority 2005, published 2009)

Tested on: Monocotyledonous and dicotyledonous test plants
Experiment: Example B3: herbicidal action prior to emergence (pre-emergence), 96-cell seed trays, 1000 g/ha
Type: in vivo
Set-up: key: 0 is no damage to plant; 5 is total damage to plant
Settings: 9 days after application; for AGSTE herbicidal effect (visual assessment, scale 0-5): Agrostis tenius (Colonial bentgrass); for AMARE herbicidal effect (visual assessment, scale 0-5): Amaranthus retroflexus (redroot pigweed); for DIGSA herbicidal effect (visual assessment, scale 0-5): Digitaria sanguinalis (hairy finger-grass); for POATR herbicidal effect (visual assessment, scale 0-5): Poa trivialis (rough blue grass); for SETIT herbicidal effect (visual assessment, scale 0-5): Setaria italica (foxtail millet)
Description: Monocotyledonous and dicotyledonous test plants were sown in sterilised standard soil in seed trays each with 96 cells. The seed trays were stored under controlled conditions in a climatic chamber for one day (cultivation at 23° C. during the day and 17° C. at night; 13 hours of light; 50-60% humidity). The chemicals were applied to the soil surface. The application was carried out with an aqueous suspension of the test substances, prepared as a formulation in water with 10% dimethyl sulfoxide (CAS RN 67-68-5), to achieve a field equivalent of 1000 l/ha. The application rate of the test substances was 1000 g/ha. The plants were grown on in the climatic chamber for 9 days (cultivation at 24° C. during the day and 19° C. at night; 13 hours of light; 50-60% humidity). A visual assessment of the herbicidal effect was made at 9 days after application. The following scale was used for assessment: 0, 1, 2, 3, 4 and 5 (where 0 is no damage to plant and 5 is total damage to plant).

SMILES | AGSTE herbicidal effect (visual assessment, scale 0-5) | AMARE herbicidal effect (visual assessment, scale 0-5) | DIGSA herbicidal effect (visual assessment, scale 0-5) | POATR herbicidal effect (visual assessment, scale 0-5) | SETIT herbicidal effect (visual assessment, scale 0-5)
Cn1nc(C(F)(F)F)c(CS(=O)(=O)c2ncc(Cl)s2)c1OCC(F)(F)C(F)F [Compound 1.120] | 5 | 5 | 5 | 5 | 5
Cn1cc(C(F)S(=O)(=O)c2ncc(Cl)s2)c(C(F)(F)F)n1 (stereo not shown) [Compound No. 1.110, 5-chloro-2-[fluoro-(1-methyl-3-trifluoromethyl-1H-pyrazol-4-yl)-methanesulfonyl]-thiazole] | 0 | 4 | 4 | 4 | 5
C=C(F)COc1c(CS(=O)(=O)c2ncc(Cl)s2)c(C(F)(F)F)nn1C [Compound 1.125] | 5 | 5 | 5 | 5 | 5
Cn1nc(C(F)(F)F)c(C[S+]([O-])c2ncc(Cl)s2)c1[S+](C)[O-] (single isomer, unassigned) [Compound No. 1.090] | 5 | 3 | 5 | 4 | 5
CC(CF)Oc1c(CS(=O)(=O)c2ncc(Cl)s2)c(C(F)(F)F)nn1C (racemic) [Compound 1.133] | 5 | 5 | 5 | 5 | 5
CCSc1c(CS(=O)(=O)c2ncc(Cl)s2)c(C(F)(F)F)nn1C [Compound No. 1.077, 5-chloro-2-(5-ethylsulfanyl-1-methyl-3-trifluoromethyl-1H-pyrazole-4-ylmethanesulfonyl)-thiazole] | 5 | 3 | 5 | 5 | 4
CC(Oc1c(CSc2ncc(Cl)s2)c(C(F)(F)F)nn1C)C(F)(F)F (racemic) [Compound No. 1.126] | 4 | 4 | 5 | 1 | 4
Cn1nc(C(F)(F)F)c(C[S+]([O-])c2ncc(Cl)s2)c1OCCCF (racemic) [Compound 1.103] | 5 | 4 | 5 | 5 | 4
CC[S+]([O-])c1c(C[S+]([O-])c2ncc(Cl)s2)c(C(F)(F)F)nn1C (mixture of isomers) [Compound No. 1.078] | 5 | 4 | 5 | 5 | 5
Cn1cc(CS(=O)(=O)c2ncc(Cl)s2)c(C(F)(F)F)n1 [Compound 1.107] | 0 | 3 | 5 | 0 | 3
CCS(=O)(=O)c1c(C[S+]([O-])c2ncc(Cl)s2)c(C(F)(F)F)nn1C (racemic) [1.080] | 5 | 4 | 5 | 5 | 5
Cn1nc(C(F)(F)F)c(C[S+]([O-])c2ncc(C(F)F)s2)c1OCC(F)(F)F (racemic) [Compound 1.086] | 5 | 5 | 5 | 5 | 4
Cn1nc(C(F)(F)F)c(C[S+]([O-])c2ncc(Cl)s2)c1[S+](C)[O-] (single isomer, unassigned) [Compound No. 1.091] | 5 | 4 | 4 | 0 | 4
Cn1nc(C(F)(F)F)c(C[S+]([O-])c2ncc(Cl)s2)c1S(C)(=O)=O (racemic) [Compound No. 1.092] | 5 | 3 | 5 | 3 | 4
Cn1nc(C(F)(F)F)c(CSc2ncc(Cl)s2)c1OCC(F)F [Compound No. 1.115] | 5 | 3 | 5 | 0 | 3
Cc1cnc(S(=O)(=O)Cc2c(C(F)(F)F)nn(C)c2OCC(F)(F)F)s1 [Compound 1.075] | 5 | 1 | 0 | 5 | 5
CC(Oc1c(CS(=O)(=O)c2ncc(Cl)s2)c(C(F)(F)F)nn1C)C(F)(F)F (racemic) [Compound 1.130] | 5 | 5 | 5 | 5 | 5
CCS(=O)(=O)c1c(CS(=O)(=O)c2ncc(Cl)s2)c(C(F)(F)F)nn1C [Compound No. 1.081] | 5 | 5 | 0 | 0 | 4
Cn1nc(C(F)(F)F)c(CS(=O)(=O)c2ncc(Cl)s2)c1OCCCF [Compound 1.104] | 5 | 5 | 5 | 5 | 5
CC(Oc1c(C[S+]([O-])c2ncc(Cl)s2)c(C(F)(F)F)nn1C)C(F)(F)F (mixture of isomers) [Compound 1.127] | 5 | 5 | 5 | 5 | 5
Cn1nc(C(F)(F)F)c(CSc2ncc(Cl)s2)c1OCCCF [Compound No. 1.102] | 5 | 2 | 4 | 0 | 2
CSc1c(C[S+]([O-])c2ncc(Cl)s2)c(C(F)(F)F)nn1C (racemic) [Compound No. 1.089] | 5 | 5 | 5 | 5 | 5
Cn1nc(C(F)(F)F)c(CS(=O)(=O)c2ncc(Cl)s2)c1OC(CF)CF [Compound 1.114] | 5 | 5 | 5 | 5 | 5
Cn1cc(C[S+]([O-])c2ncc(Cl)s2)c(C(F)(F)F)n1 (racemic) [Compound 1.106] | 0 | 2 | 4 | 5 | 4
Cn1nc(C(F)(F)F)c(C[S+]([O-])c2ncc(Cl)s2)c1OCC(F)F (racemic) [Compound 1.116] | 5 | 5 | 5 | 5 | 5
Cn1nc(C(F)(F)F)c(C[S+]([O-])c2ncc(Cl)s2)c1OC(CF)CF (racemic) [Compound 1.113] | 5 | 5 | 5 | 4 | 5
